Test results as given in patent US4206215A, “Antimicrobial bis-[4-(substituted-amino)-1-pyridinium]alkanes” (Sterling Drug Inc., priority 1977, dated 1980).
Like-named read-outs stand apart in the source and are kept apart here.

Tests used:
T. menta. 9129 = test: In vitro antifungal activity, MIC (modified Autotiter method); format: cell-based, Trichophyton mentagrophytes; conditions: 18-20 hours at 37° C.; for MIC: Trichophyton mentagrophytes, 20 h, read-out: MIC T. menta. 9129
Method in brief: (§1)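 MIC values come from a twofold dilution series spanning final concentrations of 500 down to 0.06 mcg./ml. Dilutions were prepared automatically in sterile water from a 1,000 mcg./ml. solution before inoculated double-strength glucose-containing semisynthetic medium was added.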

[1] = test system: Herpes simplex type 2 virus; test: Virucidal activity in vitro (plaque inhibition test); format: cell-based; conditions: 2 mg. of test compound on growth medium
Protocol: Virucidal activity of representative examples against Herpes simplex type 2 virus was determined in vitro employing a procedure similar to the plaque inhibition test for detection of specific inhibitors of DNA-containing viruses published by E. C. Herrmann, Jr., Proc. Soc. Exp. Biol. Med. 107, 142 (1961) wherein 2 mg. of the test compound was placed on the surface of the growth medium.

S. Aureus ATCC 6538 = test: Effect of serum on bacteriostatic activity (serial tube dilution test); format: cell-based, Staphyloccocus aureus; conditions: for Fold Increase in MIC S. Aureus ATCC 6538: 40% vs 0% horse serum; for MIC: Staphylococcus aureus, ATCC6538
E. coli Vogel = test: In vitro antibacterial activity, MIC (modified Autotiter method); format: cell-based, Escherichia coli; conditions: 18-20 hours at 37° C.; for MIC: Escherichia coli, 20 h, read-out: MIC E. coli Vogel
Method in brief: as §1

E. coli AB1932-1 = test: as above; format: cell-based, Escherichia coli; conditions: 18-20 hours at 37° C.; for MIC: Escherichia coli, AB19321, 20 h, read-out: MIC E. coli AB1932-1
Method in brief: as §1

E. coli 100/B22 = test: as above; format: cell-based, Escherichia coli; conditions: for MIC: Escherichia coli, 100/B22, 20 h, read-out: MIC E. coli 100/B22, 18-20 hours at 37° C.; for MIC E. coli 100/B22: 18-20 hours at 37° C.
Method in brief: as §1

S. Aureus Smith = test: as above; format: cell-based, Staphylococcus aureus; conditions: Staphylococcus aureus, 20 h, 18-20 hours at 37° C.; read-out: MIC S. Aureus Smith
Method in brief: as §1

[2] = 40% heat inactivated horse serum, read-out: MIC S. Aureus ATCC 6538 40% Serum
[3] = read-out: MIC S. Aureus ATCC 6538 0% Serum

| Compound | MIC (T. menta. 9129) [µg/mL] | Virucidal activity against Herpes simplex type 2 virus [1] | Fold Increase in MIC S. Aureus ATCC 6538 (S. Aureus ATCC 6538) [fold] | MIC (S. Aureus ATCC 6538; [2]) [µg/mL] | MIC (S. Aureus ATCC 6538; [3]) [µg/mL] | MIC (E. coli Vogel) [µg/mL] | MIC (E. coli AB1932-1) [µg/mL] | MIC (E. coli 100/B22) [µg/mL] | MIC (S. Aureus Smith) [µg/mL] | MIC E. coli 100/B22 (E. coli 100/B22) [µg/mL] | MIC T. menta. 9129 (T. menta. 9129) [µg/mL] | MIC E. coli Vogel (E. coli Vogel) [µg/mL] | MIC E. coli AB1932-1 (E. coli AB1932-1) [µg/mL] |
| --- | --- | --- | --- | --- | --- | --- | --- | --- | --- | --- | --- | --- | --- |
| CCCCCCNc1cc[n+](CCCCCCCCCCCCCC[n+]2ccc(NCCCCCC)cc2)cc1 [Example 5C, 1,14-bis-[4-(hexylamino)-1-pyridinium]tetradecane dibromide] | 0.76 | active | 32 | 3.12 | 0.1 | 0.76 | 0.76 | 0.76 | 0.38 |  |  |  |  |
| CCCCCCCCNc1cc[n+](CCCCCCCC[n+]2ccc(NCCCCCCCC)cc2)cc1 [Example 11, 1,8-bis-[4-(octylamino)-1-pyridinium]octane dibromide] | 0.5 | active | 16 | 7.8 | 0.5 | 1 | 1 |  | 0.25 | 1.95 |  |  |  |
| CCCCCCCNc1cc[n+](CCCCCCCCCCCC[n+]2ccc(NCCCCCCC)cc2)cc1 [Example 3, 1,12-bis-[4-(heptylamino)-1-pyridinium]dodecane dibromide] |  | active | 8 | 3.12 | 0.39 |  |  |  | 0.39 | 3.13 | 1.56 | 1.56 | 6.25 |
| CCCCC(CC)CNc1cc[n+](CCCCCCCCCC[n+]2ccc(NCC(CC)CCCC)cc2)cc1 (stereo not drawn) [Example 58, 1,10-bis-[4-(2-ethylhexylamino)-1-pyridinium]decane dibromide] | 0.76 | active | 16 | 3.9 | 0.25 | 1.5 |  | 0.76 | 0.24 |  |  |  | 0.37 |
| CCCCCCCNc1cc[n+](CCCCCCCCC[n+]2ccc(NCCCCCCC)cc2)cc1 [Example 24, 1,9-bis-[4-(heptylamino)-1-pyridinium]nonane dibromide] | 0.5 | active | 16 | 1.95 | 0.125 | 1 | 1 | 1.95 | 0.25 |  |  |  |  |
